Experimental data from patent US10987317B2, “Inhibition of glutaminase C” (Cornell University, priority 2009, dated 2021).

Legend:
[1] = tested on: NIH 3T3 cells stably expressing Cdc42(F28L) and transiently expressing GAC; experiment: Focus formation by Cdc42(F28L) plus GAC; assay type: cell-based
Text: (§1) FIGS. 4A-E illustrate the role of glutaminase C activity in cellular transformation. […] Data represent the average of 3 experiments (±s.d.). […] Data represent the average of 3 experiments (±s.d.). […] 100% represents the activity measured in untreated Dbl-transformed cells. The data represent the average of 2 experiments. […] 100% represents the activity measured in untreated SKBR3 cells. The data represent the average of 2 experiments. […] Data represent the average of 3 experiments (±s.d.).

[2] = tested on: GA activity in MDA-MB231 cells; experiment: GA activity in mitochondrial fractions; assay type: cell-based, human; conditions: 10 μM, phosphate-independent
Procedure: (§2) 100%=620 moles of glutamine hydrolyzed per minute per mole of enzyme. Data represent the average of 3 experiments (±s.d.). […] Following precipitation of the beads and re-suspension, the samples are analyzed by Western blotting with anti-V5 antibody. […] Data represent the average of 3 experiments (±s.d.). […] Data represent the average of 3 experiments (±s.d.). […] Data represent the average of 3 experiments (±s.d.). FIG. 3E NIH 3T3 cells transiently expressing Dbl are assayed for focus formation in the presence of 10 μM 968 alone or together with […] dimethyl α-ketoglutarate. […] 100%=680 nM glutamine hydrolyzed per minute per 10^5 cells. Data are the average of 3 experiments (=s.d.). […] 100%=750 nM glutamine hydrolyzed per minute per 10^5 cells. Data represent the average of 3 experiments (±s.d.).
(§3) FIGS. 11A-E illustrate the effects of different treatments on GA activity. […] The addition of Pi stimulated the GA activity in control 3T3 cells, Dbl-expressing cells, and Cdc42(F28L)-expressing cells by ˜6-fold, 2-fold, and 3-fold, respectively. 100% represents the Pi-stimulated activity measured for Dbl-transformed cells that are not treated with 968. […] The data are plotted as the percentage of GA activity measured for untreated SKBR3 cells and represent the average of 2 experiments. […] 100% represents the P1-stimulated activity measured for untreateDbl-transformed cells. […]

HMECs = experiment: Growth of normal mammary epithelial cells; assay type: cell-based, human; conditions: 10 μM, 6 days
[3] = tested on: NIH 3T3 cells stably expressing Cdc42(F28L), Rac(F28L), RhoC(F30L); experiment: Transforming activity of constitutively active Rho GTPase mutants; assay type: cell-based; conditions: 10 μM
Procedure: (§4) FIGS. 2A-G illustrate effects of 968 on the transforming activity of constitutively active Rho GTPases and human breast cancer cells. […] Cells are scored after 14 days and plotted as the percentage of the total number of colonies greater than […] in diameter. Data represent the average of 3 experiments (±s.d.). […] Data represent the average of 3 experiments (±s.d.). […] Data represent the average of 3 experiments (±s.d.). […] After 24 hours at 37° C. the migratory cells are fixed, stained with GIEMSA, and counted. Data represent the average of 3 experiments (±s.d.). […] Data represent the average of 3 experiments (±s.d.). […] Data represent the average of 3 experiments (±s.d.). […] Data represent the average of 3 experiments (±s.d.).

MDA-MB231 cells = experiment: Breast cancer cell soft agar colony formation and growth; assay type: cell-based, human; conditions: 10 μM
Procedure: as §4

[4] = tested on: GA activity in Dbl- and Cdc42(F28L)-expressing NIH 3T3 cells; experiment: GA activity in mitochondrial fractions of transformed fibroblasts; assay type: cell-based; conditions: 10 μM
Procedure: as §2, §1
FIGS. 11A-E illustrate the effects of different treatments on GA activity. […] The addition of Pi stimulated the GA activity in control 3T3 cells, Dbl-expressing cells, and Cdc42(F28L)-expressing cells by ˜6-fold, 2-fold, and 3-fold, respectively. 100% represents the Pi-stimulated activity measured for Dbl-transformed cells that are not treated with 968. Data is the average of 3 experiments (±s.d.). […] The addition of Pi stimulated the GA activity of HMECs, MDA-MB231 cells, and SKBR3 cells by ˜5-fold, 2-fold, and 1.4-fold, respectively. 100% represents the Pi-stimulated activity for SKBR3 cells that were not treated with 968. Data are the average of 3 experiments (±s.d.). […] Mitochondrial fractions are prepared from equal numbers of cells and assayed for GA activity in the presence or absence of 133 mM Pi. The data are plotted as the percentage of GA activity measured for untreated SKBR3 cells and represent the average of 2 experiments. […] 100% represents the P1-stimulated activity measured for untreateDbl-transformed cells. The data represent the average of 2 experiments. […] 100% represents the Pi-stimulated activity for untreated SKBR3 cells. The data represent the average of 2 experiments.
Mitochondrial preparations were obtained using the mitochondria isolation kit from QIAGEN (Cat #37612). A suspension containing 2×10^7 cells was transferred into a 50 ml conical tube and centrifuged at 500×g for 10 minutes at 4° C. […]

[5] = tested on: GA activity in SKBR3 cells; experiment: GA activity in mitochondrial fractions; assay type: cell-based, human; conditions: 10 μM, phosphate-independent
Procedure: as §2, §1
as §3, with “968. Data is the average of 3 experiments (±s.d.). […] The addition of Pi stimulated the GA activity of HMECs, MDA-MB231 cells, and SKBR3 cells by ˜5-fold, 2-fold, and 1.4-fold, respectively.” for “968.”

CN(C)c1ccc(C2Nc3ccc4ccccc4c3C3=C2C(=O)CC(C)(C)C3)cc1Br (stereo not drawn) [Compound 968, 5-[3-bromo-4-(dimethylamino)phenyl]-2,2-dimethyl-2,3,5,6-tetrahydrobenzo[a]]
focus-forming activity [1]: blocked | basal GA activity [2]: sensitive | growth of HMECs (HMECs): little effect | colony formation in soft-agar [3]: blocking | growth under low serum conditions ([3]; 1% calf serum): blocking | growth to high density ([3]; 10% calf serum, 6 days): blocking | invasive activity ([3]; Matri-gel, 24 hours): inhibiting | colony formation in soft agar (MDA-MB231 cells): inhibits | growth to high density and in low serum (MDA-MB231 cells): inhibits | GA activity of transformed cells [4]: inhibits | sensitivity of basal versus phosphate-stimulated GA activity ([4]; 133 mM Pi): basal activity being more sensitive | basal GA activity [5]: sensitive
